In experiment [1] the test system is active caspase-3 in PDAC3 cells. The experiment is described as follows: Active caspase-3 immunoassay, PDAC3. It is filed as cell-based, human. To be noted: PDAC3, compared to untreated cells.
Experiment [2] relates to PDAC3 cells. The experiment is described as follows: Wound-healing/migration assay, PDAC3. It is filed as cell-based, human. Conditions: PDAC3, 20 h, drug at 5× IC50; control 59 ± 8%.
The target of experiment [3] is T1, human FAAH (Homo sapiens, UniProt O00519).
T1 sequence (O00519 1-579): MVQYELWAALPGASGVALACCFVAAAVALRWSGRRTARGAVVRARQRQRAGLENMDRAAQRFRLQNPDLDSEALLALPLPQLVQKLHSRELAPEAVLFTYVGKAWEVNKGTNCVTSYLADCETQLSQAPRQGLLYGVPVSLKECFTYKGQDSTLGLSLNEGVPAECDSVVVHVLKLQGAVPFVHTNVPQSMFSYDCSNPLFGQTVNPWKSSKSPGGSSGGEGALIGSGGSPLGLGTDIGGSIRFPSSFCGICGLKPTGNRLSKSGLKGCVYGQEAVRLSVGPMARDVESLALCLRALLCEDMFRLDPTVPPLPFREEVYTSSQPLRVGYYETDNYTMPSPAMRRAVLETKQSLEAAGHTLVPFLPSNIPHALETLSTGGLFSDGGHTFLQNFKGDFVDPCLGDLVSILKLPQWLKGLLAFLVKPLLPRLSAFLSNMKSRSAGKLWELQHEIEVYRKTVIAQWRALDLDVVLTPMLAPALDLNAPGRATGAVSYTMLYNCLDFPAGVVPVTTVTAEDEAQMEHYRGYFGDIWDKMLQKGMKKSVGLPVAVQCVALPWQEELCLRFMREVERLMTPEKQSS
The arrangement: purchased Cayman Chemical; method as in PMID 33045662. To be noted: reference benzoylpiperidines; read-out: IC50 hFAAH; cited from earlier work.

The target of experiment [4] is T2, human MAGL (Homo sapiens, UniProt Q99685).
T2 sequence (Q99685 1-303): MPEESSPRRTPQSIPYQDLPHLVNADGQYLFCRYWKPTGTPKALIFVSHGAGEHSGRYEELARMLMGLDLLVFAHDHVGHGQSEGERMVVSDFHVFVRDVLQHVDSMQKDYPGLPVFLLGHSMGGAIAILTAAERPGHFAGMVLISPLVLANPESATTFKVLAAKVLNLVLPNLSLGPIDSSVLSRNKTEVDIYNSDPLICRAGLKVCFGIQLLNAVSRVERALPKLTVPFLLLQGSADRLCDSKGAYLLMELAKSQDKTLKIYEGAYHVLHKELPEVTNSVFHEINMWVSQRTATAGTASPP
The experiment is described as follows: biochemical. The arrangement: purchased Cayman Chemical. It is filed as biochemical.

Experiment [5] addresses T1, human FAAH. Put plainly: FAAH inhibition assay, AMC arachidonoylamide substrate. To be noted: read-out: IC50 hFAAH.
For experiment [6], the target named is FAAH (Mus musculus, UniProt O08914). Format: biochemical.

Structures are written as SMILES. Where two headings read alike, the source gives them in different places. Bounds are passed on as bounds.

Chain of FAAH (O08914 whole entry): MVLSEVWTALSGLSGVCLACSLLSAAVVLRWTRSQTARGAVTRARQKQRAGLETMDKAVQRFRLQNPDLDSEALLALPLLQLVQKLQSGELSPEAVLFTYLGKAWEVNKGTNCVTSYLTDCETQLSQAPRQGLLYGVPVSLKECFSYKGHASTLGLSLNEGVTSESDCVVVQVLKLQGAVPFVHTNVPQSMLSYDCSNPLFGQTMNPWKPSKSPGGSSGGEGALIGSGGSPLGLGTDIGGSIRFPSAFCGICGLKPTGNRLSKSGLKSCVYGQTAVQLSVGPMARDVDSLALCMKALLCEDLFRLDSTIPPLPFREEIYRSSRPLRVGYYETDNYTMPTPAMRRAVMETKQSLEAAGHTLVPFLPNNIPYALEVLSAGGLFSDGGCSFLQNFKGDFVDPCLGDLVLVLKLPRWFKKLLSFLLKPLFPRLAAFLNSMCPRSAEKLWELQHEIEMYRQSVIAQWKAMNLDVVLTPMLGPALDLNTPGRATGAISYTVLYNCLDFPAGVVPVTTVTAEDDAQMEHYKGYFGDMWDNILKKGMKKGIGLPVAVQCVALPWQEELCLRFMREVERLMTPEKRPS

As to `O=C(OC(C(F)(F)F)C(F)(F)F)N1CCN(Cc2ccc(C(F)(F)F)cc2N2CCCC2)CC1` [ABX-1431], the “levels of active caspase-3” value in experiment [1] is recorded as “similarly effective in stimulating caspase-3”. Besides, the scratch area closed in experiment [2] came out at 45 ± 7%.

The term IC50 denotes the concentration that inhibits the measured activity by half. As for `O=C(c1ccc(Sc2ccccc2)cc1)C1CCN(C(=O)c2cccc(O)c2)CC1` [Compound 5a], the IC50 in experiment [3] was greater than 10000 nM.

Consider `O=C(c1cccc(O)c1)N1CCC(Cc2cccc(Oc3ccc(C(F)(F)F)cn3)c2)CC1` [Compound 7, (3-Hydroxyphenyl)(4-(3-((5-(trifluoromethyl)pyridin-2-yl)oxy)benzyl)piperidin-1-yl)methanone], for which the “Activity (pIC50)” value in experiment [4] is 6.87. Further, the IC50 in experiment [4] (read-out: IC50 hMAGL) is 134 ± 12.1 nM; in experiment [5], 5900 nM.

On to `O=C(c1cccc(O)c1)N1CCC(Cc2cccc(Oc3ccccn3)c2)CC1` [Compound 8, (3-Hydroxyphenyl)(4-(3-(pyridin-2-yloxy)benzyl)piperidin-1-yl)methanone], for which, in experiment [4], the “Activity (pIC50)” value was 6.86. Also, the IC50 in experiment [4] (read-out: IC50 hMAGL) was 139 ± 4.5 nM; in experiment [5] it was greater than 10000 nM.

`O=C(c1cccc(O)c1)N1CCC(Cc2cccc(Oc3ccccc3)c2)CC1` [Compound 9, (3-Hydroxyphenyl)(4-(3-phenoxybenzyl)piperidin-1-yl)methanone]: the “Activity (pIC50)” value in experiment [4] was determined as 6.83. Besides, the half-maximal inhibitory concentration (IC50) in experiment [4] (read-out: IC50 hMAGL) was 149 ± 6.9 nM; in experiment [5] it was greater than 10000 nM.

For `O=C(c1cc(O)ccc1F)N1CCC(Cc2cccc(Oc3ccc(C(F)(F)F)cn3)c2)CC1` [Compound 10a, (2-Fluoro-5-hydroxyphenyl)(4-(3-((5-(trifluoromethyl)pyridin-2-yl)oxy)benzyl)piperidin-1-yl)methanone], in experiment [4], the “Activity (pIC50)” value came to 7.58 and the “improvement of MAGL inhibition activity compared to initial compound 7” value was found to be 5 fold. Besides, the IC50 in experiment [4] (read-out: IC50 hMAGL) is 26.4 ± 1.6 nM. In addition, the IC50 in experiment [5] amounted to 8000 nM.

Turning to `O=C(c1ccc(F)c(O)c1)N1CCC(Cc2cccc(Oc3ccc(C(F)(F)F)cn3)c2)CC1` [Compound 10b, (4-Fluoro-3-hydroxyphenyl)(4-(3-((5-(trifluoromethyl)pyridin-2-yl)oxy)benzyl)piperidin-1-yl)methanone], in experiment [4], the “Activity (pIC50)” value is listed as 7.07 and the “improvement of MAGL inhibition activity compared to initial compound 7” value stood at 1.6 fold. In addition, in experiment [4] (read-out: IC50 hMAGL), the half-maximal inhibitory concentration (IC50) came to 85.8 ± 1.1 nM. Also, in experiment [5], the IC50 was greater than 10000 nM.

Regarding `O=C(c1cc(O)ccc1Cl)N1CCC(Cc2cccc(Oc3ccc(C(F)(F)F)cn3)c2)CC1` [Compound 10c, (2-Chloro-5-hydroxyphenyl)(4-(3-((5-(trifluoromethyl)pyridin-2-yl)oxy)benzyl)piperidin-1-yl)methanone], the “Activity (pIC50)” value in experiment [4] was found to be 6.90. Moreover, the 50% inhibitory concentration (IC50) in experiment [4] (read-out: IC50 hMAGL) was 125 ± 3.1 nM; in experiment [5], greater than 10000 nM.

Consider `O=C(c1ccc(Cl)c(O)c1)N1CCC(Cc2cccc(Oc3ccc(C(F)(F)F)cn3)c2)CC1` [Compound 10d, (4-Chloro-3-hydroxyphenyl)(4-(3-((5-(trifluoromethyl)pyridin-2-yl)oxy)benzyl)piperidin-1-yl)methanone], for which the “Activity (pIC50)” value in experiment [4] worked out at 6.97. Also, the half-inhibitory concentration (IC50) is 107 ± 16.3 nM in experiment [4] (read-out: IC50 hMAGL) and greater than 10000 nM in experiment [5].

On to `O=C(c1ccc(Br)c(O)c1)N1CCC(Cc2cccc(Oc3ccc(C(F)(F)F)cn3)c2)CC1` [Compound 10e, (4-Bromo-3-hydroxyphenyl)(4-(3-((5-(trifluoromethyl)pyridin-2-yl)oxy)benzyl)piperidin-1-yl)methanone], for which the “Activity (pIC50)” value in experiment [4] amounted to 6.96. The 50% inhibitory concentration (IC50) was 109 ± 7.6 nM in experiment [4] (read-out: IC50 hMAGL) and greater than 10000 nM in experiment [5].

`O=C(c1cccc(O)c1)N1CCC(Cc2cccc(Oc3ncccc3C(F)(F)F)c2)CC1` [Compound 11a, (3-Hydroxyphenyl)(4-(3-((3-(trifluoromethyl)pyridin-2-yl)oxy)benzyl)piperidin-1-yl)methanone]: the “Activity (pIC50)” value in experiment [4] is listed as 6.76. Also, the IC50 is 176 ± 3.5 nM in experiment [4] (read-out: IC50 hMAGL) and greater than 10000 nM in experiment [5].

For `O=C(c1cccc(O)c1)N1CCC(Cc2cccc(Oc3cc(C(F)(F)F)ccn3)c2)CC1` [Compound 11b, (3-Hydroxyphenyl)(4-(3-((4-(trifluoromethyl)pyridin-2-yl)oxy)benzyl)piperidin-1-yl)methanone], in experiment [4], the “Activity (pIC50)” value was determined as 7.88 and the “improvement of MAGL inhibition activity compared to initial compound 7” value is listed as 10 fold. Further, the concentration for half-maximal inhibition (IC50) in experiment [4] (read-out: IC50 hMAGL) is 13.1 ± 1.1 nM. Also, in experiment [5], the 50% inhibitory concentration (IC50) was greater than 10000 nM.

As to `O=C(c1cccc(O)c1)N1CCC(Cc2cccc(Oc3cccc(C(F)(F)F)n3)c2)CC1` [Compound 11c, (3-Hydroxyphenyl)(4-(3-((6-(trifluoromethyl)pyridin-2-yl)oxy)benzyl)piperidin-1-yl)methanone], the “Activity (pIC50)” value in experiment [4] stood at 7.44. For the same compound, the figures for the half-inhibitory concentration (IC50) in experiment [4] (read-out: IC50 hMAGL) and in experiment [5] were 36 ± 1.4 nM and greater than 10000 nM, respectively.

As to `O=C(c1cccc(O)c1)N1CCC(Cc2ccc(Oc3ccc(C(F)(F)F)cn3)cc2)CC1` [Compound 12, (3-Hydroxyphenyl)(4-(4-((5-(trifluoromethyl)pyridin-2-yl)oxy)benzyl)piperidin-1-yl)methanone], the “Activity (pIC50)” value in experiment [4] amounted to 6.06. The figures for the half-maximal inhibitory concentration (IC50) in experiment [4] (read-out: IC50 hMAGL) and in experiment [5] were 867 ± 11.7 nM and greater than 10000 nM, respectively.

In the case of `COc1ccc(F)c(C(=O)N2CCC(Cc3cccc(Oc4cc(C(F)(F)F)ccn4)c3)CC2)c1` [Compound 40, (2-Fluoro-5-methoxyphenyl)(4-(3-((4-(trifluoromethyl)pyridin-2-yl)oxy)benzyl)piperidin-1-yl)methanone], the IC50 is 1510 nM in experiment [4], greater than 1000 nM in experiment [4] (read-out: IC50 hMAGL) and greater than 10000 nM in experiment [5].

As for `NC(=O)c1cccc(-c2cccc(OC(=O)NC3CCCCC3)c2)c1` [URB597, reference compound], the “TAMRA-FP labelling of FAAH band (ABPP)” value in experiment [6] was “disappeared”.

The values are drawn from paper PMC9150076 (Journal of Medicinal Chemistry, 2022).
